Source: patent US9233921B2, “Potent poxvirus inhibitor” (priority 2013, dated 2016)
Entries after “also recorded” stand apart in the source; their conditions may differ. Where two headings read alike, the source gives them in different places.

What was measured:
[1] = test system: vaccinia virus; experiment: microbe, parasite or virus in culture; type: cell-based, Vaccinia virus (WR strain)
[2] = test system: BSC-1 cells; experiment: Cytotoxicity (CC50)
[3] = test system: recombinant VACV (vL1Ri); type: cell-based, vaccinia virus in BSC-1 cells
[4] = test system: mD4-VV hybrid virus; experiment: microbe, parasite or virus in culture; type: cell-based; settings: read-out: IC50 mD4-VV hybrid virus
[5] = Cytotoxicity (CC50); settings: African green monkey, BSC-1 cells
[6] = Table 5, mean ± SEM of triplicates

“6-Methyl-3-(phenylthio)-1H-indole-2-carboxylate [Compound 29]” showed an IC50 ([1]; read-out: IC50 (antiviral)) of 10 µM and a CC50 ([2]; read-out: CC50 (cytotoxicity), BSC-1 cells, NA = not active (assays requiring >200 μM)) of 26 µM.
With `Nc1ccn(C[C@@H](CO)OCP(=O)(O)O)c(=O)n1` [CDV, cidofovir] the “EGFP expression (late reporter gene)” value [3] was “equally effective at a higher dose; also recorded: clearly showed suppression of EGFP when pretreated” and the “EGFP expression, compound added after virus adsorption” value ([3]; 8 h) was “comparable EGFP expression and CPE to DMSO vehicle; also recorded: EGFP expression comparable to vehicle-treatment”.
With `Cc1ccc2c(Sc3cc(Cl)cc(Cl)c3)c(CCC(N)=O)[nH]c2c1` [Compound 24a, 3-(3-((3,5-Dichlorophenyl)thio)-6-methyl-1H-indol-2-yl)propanamide] the IC50 [4] was 0.03 µM, the “SI (selectivity index = CC50/IC50)” value [1] was 374 and the IC50 ([1]; Orthopoxvirus vaccinia) was 0.042 µM. The CC50 [2, 6] was 16 ± 5 µM and the “cytotoxicity within experimental time frame” value ([2]; cells treated 9 h, FIG. 7A) was “minimal cytotoxicity”.
In the case of `Cc1ccc2c(Sc3cc(Cl)cc(Cl)c3)c(CC(N)=O)[nH]c2c1` [Compound 24b, 2-(3-((3,5-Dichlorophenyl)thio)-6-methyl-1H-indol-2-yl)acetamide], the IC50 [4] is reported as 0.097 µM, the “SI (selectivity index = CC50/IC50)” value [1] is reported as 570 and the IC50 ([1]; Orthopoxvirus vaccinia) is reported as 0.046 µM. The CC50 [2, 6] was 26 ± 3 µM.
In the case of `Cc1ccc2c(Sc3cc(Cl)cc(Cl)c3)c(CCCC(N)=O)[nH]c2c1` [Compound 24c, 4-(3-((3,5-Dichlorophenyl)thio)-6-methyl-1H-indol-2-yl)butanamide], the IC50 [4] is reported as 0.199 µM, the “SI (selectivity index = CC50/IC50)” value [1] is reported as 115 and the “fold decrease in potency / loss of activity compared to 24a” value [1] is reported as roughly 5 fold. For the same compound, the IC50 ([1]; Orthopoxvirus vaccinia) was 0.208 µM and the CC50 [5] was 243 ± 2 µM.
In the case of `Cc1ccc2c(Sc3cc(Cl)cc(Cl)c3)c(CCC(=O)O)[nH]c2c1` [Compound 24d, 3-(3-((3,5-Dichlorophenyl)thio)-6-methyl-1H-indol-2-yl)propanoic acid], the “SI (selectivity index = CC50/IC50)” value [1] is reported as 152, the “fold decrease in potency / loss of activity compared to 24a” value [1] is reported as roughly 5 fold and the IC50 ([1]; Orthopoxvirus vaccinia) is reported as 0.244 µM. It also gave a CC50 [2, 6] of 36 ± 14 µM.
Work on `CCCCCCNC(=O)CCc1[nH]c2cc(C)ccc2c1Sc1cc(Cl)cc(Cl)c1` [Compound 24e, 3-(3-((3,5-Dichlorophenyl)thio)-6-methyl-1H-indol-2-yl)-N-hexylpropanamide] yielded a CC50 [2, 6] of 27 ± 4 µM.
For `Cc1cccc2[nH]c(C(=O)O)c(Sc3cc(Cl)c(Cl)cc3Cl)c12` [Compound 30b, 4-Methyl-3-((2,4,5-trichlorophenyl)thio)-1H-indole-2-carboxylic acid], the IC50 ([1]; Orthopoxvirus vaccinia, BSC-1, read-out: IC50 (antiviral)) was 18 µM and the CC50 [5] was 65 µM.
